Test results: patent US20250115612A1, “CERTAIN 2,5-DIAZABICYCLO[4.2.0]OCTANES AND OCTAHYDROFURO[3,4-B]PYRAZINES AS GLP-1 RECEPTOR MODULATORS” (ASTRAZENECA AB, priority 2021, published 2025)

Assays:
[1] = molecular target: T1, human GLP-1R receptor (Homo sapiens, UniProt P43220, L260F); assay: CHOK1 GLP-1R cAMP assay (HTRF); format: cell-based; settings: CHO-K1 cells stably expressing human GLP-1R
T1 construct: expressed in transfected cells; host or cells: CHO-K1 (ATCC CCL-61)
Method: A cell line stably expressing the human GLP-1R receptor (NM_002062.5, including the naturally-occurring variant Leu260Phe) in a CHO-K1 (ATCC® CCL-61™) was used for assay.
GLP-1 receptor mediated agonist activity was determined in a cell-based assay measuring cyclic adenosine monophosphate (cAMP) levels in cells using Homogeneous Time-Resolved Fluorescence (HTRF) cAMP detection kit (CisBio catalog #62AM4PEC, cAMP Gs Dynamic range kit). The cAMP detection method is based on a competitive immunoassay, in which cAMP produced by the cells and cAMP labeled with the dye d2 compete for binding to a Europium-Cryptate-labeled anti-cAMP antibody. The specific HTRF signal is inversely proportional to the concentration of cAMP.
Compounds were added to individual well in 384 well-assay plates (Greiner #784076) using an Echo (LabCyte) dispenser from 10 mM stocks. Varying concentration of compounds were added to wells, and DMSO was used to normalize each well to a volume of 100 nL. A dose response curve of GLP-1(7-36)NH2 (Bachem H-6795) was included in each run. 5 μL of cAMP concentration response standards are applied in specified wells in the assay plates. Cryo-preserved cells are thawed and resuspended in assay buffer pre-heated to 37° C. (20 mM 2-[4-(2-hydroxyethyl)piperazin-1-yl]ethanesulfonic acid (HEPES) pH 7.4, lx Hank's Balanced Salt Solution (HBSS, Life Technologies #14065) supplemented with 0.1% (w/v) bovine serum albumin (Sigma, A-7030)). Cells were centrifuged at 250*g for 5 min at rt, and resuspended in room tempered assay buffer to a final density of 0.16*10^6 cell/mL, to deliver 800 cells/well. 5 μL of assay buffer with 1 mM 3-isobutyl-1-methylxanthin (IBMX; Sigma cat I-7018) was dispensed per well in assay plates using a multidrop combi (Thermo Scientific) subsequently 5 μL of cell suspension was distributed to relevant wells in the assay using a multidrop dispenser. Assay plates were incubated 20 min at rt.
Detection reagents, Europium-Cryptate-labeled anti-cAMP antibody and cAMP labeled with the dye d2, are diluted in lysis buffer, provided by the manufacturer. 5 μL of each detection reagent is supplemented to each assay well using a multidrop dispenser. Assay plates are incubated in the dark for at least one h. The HTRF signal is measured using the HTRF module (excitation: 337 nm, emission A: 665 nm and emission B: 620 nm) in Pherastar FSX (BMG Labtech).
Raw data were converted to pM cAMP using the cAMP standard curve included in each run. Converted data were further analyzed in Genedata Screener (Genedata) and EC50 determinations were made from agonist dose-response curves analyzed with a curve fitting program using a 4-parameter logistic dose response equation (Equation y=A+((B−A)/1+((C/x)^D))) where A is no stimulation, B is full stimulation, C is the EC50 and D is the Hill slope). The percent effect was determined relative to a saturating concentration of a full GLP-1R agonist (GLP-1(7-36)NH2 has 100% effect in this assay setup).

[2] = molecular target: T2, GLP-1R (Homo sapiens, UniProt P43220); assay: EndoC cAMP accumulation assay (HTRF, EndoC-βH1 cells); format: cell-based; settings: EndoC-βH1 human pancreatic β cell line
T2 construct: host or cells: EndoC-βH1
T2 sequence (P43220 24-463): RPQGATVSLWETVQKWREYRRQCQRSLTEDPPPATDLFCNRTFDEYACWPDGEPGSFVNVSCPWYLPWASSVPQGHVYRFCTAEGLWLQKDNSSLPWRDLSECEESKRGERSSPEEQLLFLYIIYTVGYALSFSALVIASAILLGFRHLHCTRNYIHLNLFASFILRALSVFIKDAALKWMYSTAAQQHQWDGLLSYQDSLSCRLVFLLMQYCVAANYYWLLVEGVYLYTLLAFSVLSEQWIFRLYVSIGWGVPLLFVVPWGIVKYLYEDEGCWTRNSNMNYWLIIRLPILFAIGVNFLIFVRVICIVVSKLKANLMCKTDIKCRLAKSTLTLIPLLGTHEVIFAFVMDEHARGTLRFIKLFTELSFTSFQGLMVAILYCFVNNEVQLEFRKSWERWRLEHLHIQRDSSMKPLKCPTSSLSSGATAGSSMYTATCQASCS
Excerpt: EndoC cAMP Accumulation Assay
A HTRF cAMP assay (cAMP Gs dynamic kit; CisoBio Cat #62AM4PEJ) was used to identify agonists of GLP-1R in a pancreatic insulinoma cell line (EndoC-PH1). […] EndoC-βH1 cells have detectable GLP-1R messenger ribonucleic acid (mRNA) as detected by quantitative polymerase chain reaction (qPCR). […] The EndoC-βH1 cell line is a valid model of human beta cells and applicable for screenings to identify novel drug target candidates (Mol. Metab., 2018, 8, 144-157). CisBio HTRF cAMP kits are based on a competitive immunoassay using cryptate-labelled anti-cAMP antibody and d2-labeled cAMP. The detection kit is intended for the direct quantitative determination of cAMP. The specific signal (i.e. energy transfer) is inversely proportional to the concentration of cAMP in the standard or sample. Test compounds (10 mM in DMSO) were diluted into assay buffer (HBSS (Sigma #H8264) supplemented with 25 mM HEPES (Gibco #15630, pH 7.4), 0.1% BSA (Sigma #A3059) and 0.5 mM IBMX (Sigma #I7018) included fresh on the day of the assay) into 96 well U-bottom plates (Greiner #650201). Diluted compounds were transferred to ECHO source polypropelene plates (Labcyte #P-05525) and dose response curves were dispensed acoustically using ECHO 550 into black shallow-well u-bottom 384-well HTRF Assay Plates (Corning 4514).
Cryovials of EndoC-H1 (supplied at 1×10e^7 cells/vial) were used directly for screening. The cryovials and were removed from N2(l) and thawed rapidly in a 37° C. water bath. The cells were resuspended in assay buffer and centrifuged at 300 g for 5 min. Cells were resuspended in assay buffer at the appropriate concentration, typically at 12e5 cells per mL (3000 cells per well, dependent on cell batch) and 2.5 μL diluted cells were added to all wells of destination plate by Multidrop combi reagent dispenser (Thermofisher). The plates were incubated at rt for 30 min. The assay was stopped by adding 2.5 μL anti-cAMP cryptate solution to all wells and 2.5 μL cAMP-d2 solution (both diluted 1:20 in lysis buffer) to columns 1-22 by Combi drop. A volume of 2.5 μL cAMP-d2 solution was added to wells E23 to P24 and 2.5 μL lysis buffer added to wells A23 to D24 by multichannel pipette. The plates were incubated at rt for 1 h and read on an Envision plate reader using excitation wavelength of 320 nm and emission of 590 nm and 660 nm.
Raw data from Envision is converted to % DeltaF according to the manufacturer's instructions. Dose response curves are analysed via 4-Parameter Logistical Analysis and assay plate Z′ values obtained. Samples are graphed as percentage (%) activation plots compared to GIP (1-42, Bachem H-5645) with assay window defined by negative control as basal cell cAMP levels and positive control are defined by maximum GIP (82.5 nM) signal. GLP-1 (7-36 amide, Bachem H-6795) dose response curve was included on all plates.

[3] = molecular target: T3, human phosphodiesterase-3A (Homo sapiens, UniProt Q14432); assay: PDE3 assay (formation of 5'AMP from cAMP, SPA); format: biochemical; settings: human recombinant enzyme expressed in Sf9 cells
T3 construct: host or cells: Sf9 (Spodoptera frugiperda)
T3 sequence (Q14432 whole entry): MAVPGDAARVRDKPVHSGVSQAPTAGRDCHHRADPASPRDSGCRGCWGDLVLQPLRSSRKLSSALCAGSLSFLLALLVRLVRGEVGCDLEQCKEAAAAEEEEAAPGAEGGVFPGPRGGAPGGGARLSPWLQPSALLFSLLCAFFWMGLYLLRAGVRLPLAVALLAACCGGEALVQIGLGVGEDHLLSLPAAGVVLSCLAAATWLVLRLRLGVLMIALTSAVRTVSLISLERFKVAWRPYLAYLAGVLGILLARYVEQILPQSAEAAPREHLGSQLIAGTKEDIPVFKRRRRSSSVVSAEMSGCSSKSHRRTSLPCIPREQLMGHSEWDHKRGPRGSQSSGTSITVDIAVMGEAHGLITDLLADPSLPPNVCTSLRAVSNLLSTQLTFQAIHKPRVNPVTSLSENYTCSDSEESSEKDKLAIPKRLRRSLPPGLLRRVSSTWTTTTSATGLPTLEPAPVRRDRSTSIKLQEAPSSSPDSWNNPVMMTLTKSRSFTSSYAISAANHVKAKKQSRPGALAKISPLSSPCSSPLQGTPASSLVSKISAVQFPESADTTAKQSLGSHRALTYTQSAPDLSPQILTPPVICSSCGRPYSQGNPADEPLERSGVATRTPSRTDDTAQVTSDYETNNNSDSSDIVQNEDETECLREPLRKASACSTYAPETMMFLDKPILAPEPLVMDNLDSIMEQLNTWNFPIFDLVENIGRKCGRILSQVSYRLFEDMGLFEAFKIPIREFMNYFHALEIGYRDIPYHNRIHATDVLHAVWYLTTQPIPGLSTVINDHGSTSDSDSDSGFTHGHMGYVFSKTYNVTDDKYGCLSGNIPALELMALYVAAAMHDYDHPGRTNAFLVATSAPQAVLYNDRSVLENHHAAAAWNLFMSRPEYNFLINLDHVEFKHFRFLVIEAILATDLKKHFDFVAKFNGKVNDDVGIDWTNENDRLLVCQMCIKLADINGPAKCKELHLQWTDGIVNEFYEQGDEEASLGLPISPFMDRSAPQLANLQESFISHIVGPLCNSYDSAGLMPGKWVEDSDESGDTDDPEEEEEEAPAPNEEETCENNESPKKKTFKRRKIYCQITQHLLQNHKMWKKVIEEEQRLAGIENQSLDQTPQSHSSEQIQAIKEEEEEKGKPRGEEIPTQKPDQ
Method: Evaluation of the effects of compounds on the activity of the human phosphodiesterase-3A is quantified by measuring the formation of 5′AMP from cAMP using a human recombinant enzyme expressed in a clonal isolate of Spodoptera frugiperda cells (Sf9) cells.
The test compound, reference compound or water (control) are added to a buffer containing 40 mM tris(hydroxymethyl)aminomethane (Tris)/HCl (pH 7.4) and 8 mM MgCl2, 450 nMcAMP and 0.25 μCi [3H]cAMP.
Thereafter, the reaction is initiated by addition of the enzyme (about 1 U) and the mixture is incubated for 20 min at 22° C.
For basal control measurements, the enzyme is omitted from the reaction mixture.
Following incubation SPA beads are added. After 30 min at 22° C. under shaking, the amount of [^3H]5′AMP is quantified with a scintillation counter (Topcount, Packard).
The results are expressed as a percent inhibition of the control enzyme activity. The standard inhibitory reference compound is milrinone (CAS number 78415-72-2), which is tested in each experiment at several concentrations to obtain an inhibition curve from which its IC50 value is calculated.

T1 sequence (P43220 24-463 L260F): as the sequence (P43220 24-463) above, with L237F counted along it

| EC50 [1] [nM] | EC50 [2] [nM] | IC50 [3] [µM] | Structure (SMILES) |
| --- | --- | --- | --- |
| 2.1 | 27 | 4.6 | N#Cc1ccc(COc2cccc(N3CCN(Cc4nc5cc(F)c(C(=O)O)cc5n4C[C@@H]4CCO4)[C@H]4CC[C@@H]43)n2)c(F)c1 (single isomer, unassigned) [Example 9b] |
| 0.6 | 1.9 | 2.9 | N#Cc1ccc(COc2cccc(N3CCN(Cc4nc5c(Cl)cc(C(=O)O)cc5n4C[C@@H]4CCO4)[C@H]4CC[C@H]43)n2)c(F)c1 (single isomer, unassigned) [Example 6a] |
| – | – | 11 | N#Cc1ccc(COc2cccc(C3CCN(Cc4nc5ccc(C(=O)O)cc5n4C[C@@H]4CCO4)CC3)n2)c(F)c1 [Ref Comp B, reference compound] |
| 8.1 | 5.6 | 2.5 | N#Cc1ccc(COc2cccc(N3CCN(Cc4nc5c(Cl)cc(C(=O)O)cc5n4C[C@@H]4CCO4)[C@H]4CC[C@H]43)n2)c(F)c1 (single isomer, unassigned) [Example 6c] |
| 0.63 | 1.9 | 29 | COc1cc(C(=O)O)cc2c1nc(CN1CCN(c3cccc(OCc4ccc(Cl)cc4F)n3)[C@@H]3COC[C@@H]31)n2C[C@@H]1CCO1 (single isomer, unassigned) [Example 16a, 2-(((4aR*,7aS*)-4-(6-((4-Chloro-2-fluorobenzyl)oxy)pyridin-2-yl)hexahydrofuro[3,4-b]pyrazin-1(2H)-yl)methyl)-4-methoxy-1-(((S)-oxetan-2-yl)methyl)-1H-benzo[d]imidazole-6-carboxylic acid] |
| 0.6 | 3 | 6.5 | COc1cc(C(=O)O)cc2c1nc(CN1CCN(c3cccc(OCc4ccc(C#N)cc4F)n3)[C@H]3CC[C@@H]31)n2C[C@@H]1CCO1 (single isomer, unassigned) [Example 4b, 2-(((1R*,6R*)-5-(6-((4-Cyano-2-fluorobenzyl)oxy)pyridin-2-yl)-2,5-diazabicyclo[4.2.0]octan-2-yl)methyl)-4-methoxy-1-(((S)-oxetan-2-yl)methyl)-1H-benzo[d]imidazole-6-carboxylic acid] |
| 0.5 | 2.1 | > 100 | COc1cc(C(=O)O)cc2c1nc(CN1CCN(c3cccc(OCc4ccc(Cl)cc4F)n3)[C@H]3CC[C@@H]31)n2C[C@@H]1CCO1 (single isomer, unassigned) [Example 5b, 2-(((1R*,6R*)-5-(6-((4-Chloro-2-fluorobenzyl)oxy)pyridin-2-yl)-2,5-diazabicyclo[4.2.0]octan-2-yl)methyl)-4-methoxy-1-(((S)-oxetan-2-yl)methyl)-1H-benzo[d]imidazole-6-carboxylic acid] |
| 3.5 | 2.4 | 3 | N#Cc1ccc(COc2cccc(N3CCN(Cc4nc5c(Cl)cc(C(=O)O)cc5n4C[C@@H]4CCO4)[C@H]4CC[C@H]43)n2)c(F)c1 (single isomer, unassigned) [Example 6d] |
| 2 | 14 | 3.5 | N#Cc1ccc(COc2cccc(N3CCN(Cc4nc5ccc(C(=O)O)cc5n4C[C@@H]4CCO4)[C@H]4COC[C@H]43)n2)c(F)c1 (racemic) [Example 17, 2-(((4aRS,7aSR)-4-(6-((4-Cyano-2-fluorobenzyl)oxy)pyridin-2-yl)hexahydrofuro[3,4-b]pyrazin-1(2H)-yl)methyl)-1-(((S)-oxetan-2-yl)methyl)-1H-benzo[d]imidazole-6-carboxylic acid] |
| 9.4 | 7.2 | 2.2 | N#Cc1ccc(COc2cccc(N3CCN(Cc4nc5cc(Cl)c(C(=O)O)cc5n4C[C@@H]4CCO4)[C@H]4CC[C@H]43)n2)c(F)c1 (single isomer, unassigned) [Example 7a] |
| 4 | 5.5 | 3.8 | COc1cc(C(=O)O)cc2c1nc(CN1CCN(c3cccc(OCc4ccc(C#N)cc4F)n3)[C@H]3CC[C@@H]31)n2C[C@@H]1CCO1 (single isomer, unassigned) [Example 4a, 2-(((1R*,6R*)-5-(6-((4-Cyano-2-fluorobenzyl)oxy)pyridin-2-yl)-2,5-diazabicyclo[4.2.0]octan-2-yl)methyl)-4-methoxy-1-(((S)-oxetan-2-yl)methyl)-1H-benzo[d]imidazole-6-carboxylic acid] |
| 1.5 | 4 | 22 | O=C(O)c1cc(F)c2nc(CN3CCN(c4cccc(OCc5ccc(Cl)cc5F)n4)[C@@H]4COC[C@@H]43)n(C[C@@H]3CCO3)c2c1 (single isomer, unassigned) [Example 19a, 2-(((4aR*,7aS*)-4-(6-((4-Chloro-2-fluorobenzyl)oxy)pyridin-2-yl)hexahydrofuro[3,4-b]pyrazin-1(2H)-yl)methyl)-4-fluoro-1-(((S)-oxetan-2-yl)methyl)-1H-benzo[d]imidazole-6-carboxylic acid] |
